PubChem BioAssay (NCI)
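A five-concentration, 48-hour dose response in 96-well plates underlies each endpoint, interpolated linearly between surrounding concentrations. TGI is the concentration that stops growth completely.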

Experiments:
Test in all cases: DTP human tumour cell line panel, 48 h
[1] = system: RPMI-8226 leukemia
[2] = system: EKVX NSCLC
[3] = system: TK-10 renal
[4] = system: SN12C renal
[5] = system: HCT-15 colon
[6] = system: HT29 colon
[7] = system: OVCAR-3 ovarian
[8] = system: SF-295 CNS
[9] = system: SK-OV-3 ovarian
[10] = system: LOX IMVI melanoma
[11] = system: OVCAR-5 ovarian
[12] = system: KM20L2 colon
[13] = system: HOP-92 NSCLC
[14] = system: SK-MEL-28 melanoma
[15] = system: OVCAR-8 ovarian
[16] = system: K-562 leukemia
[17] = system: A498 renal
[18] = system: SF-539 CNS
[19] = system: OVCAR-4 ovarian
[20] = system: KM12 colon
[21] = system: CAKI-1 renal
[22] = system: COLO 205 colon
[23] = system: DMS 273 small cell lung
[24] = system: HL-60(TB) leukemia
[25] = system: M14 melanoma
[26] = system: RXF-631 renal
[27] = system: HCC-2998 colon
[28] = system: SK-MEL-5 melanoma
[29] = system: SNB-78 CNS
[30] = system: MALME-3M melanoma
[31] = system: NCI-H522 lung
[32] = system: 786-0 renal
[33] = system: SR leukemia
[34] = system: HCT-116 colon
[35] = system: M19-MEL melanoma
[36] = system: ACHN renal
[37] = system: RXF 393 renal
[38] = system: U251 CNS
[39] = system: LXFL 529 NSCLC
[40] = system: NCI-H226 lung
[41] = system: UO-31 renal
[42] = system: CCRF-CEM leukemia
[43] = system: UACC-62 melanoma
[44] = system: IGROV1 ovarian
[45] = system: SNB-75 CNS
[46] = system: HOP-62 NSCLC
[47] = system: MOLT-4 leukemia
[48] = system: SK-MEL-2 melanoma
[49] = system: HOP-18 NSCLC
[50] = system: NCI-H460 lung
[51] = system: DMS 114 small cell lung
[52] = system: DLD-1 colon
[53] = system: NCI-H23 lung
[54] = system: UACC-257 melanoma
[55] = system: A549 NSCLC
[56] = system: SF-268 CNS
[57] = system: SW-620 colon
[58] = system: XF 498 CNS
[59] = system: SNB-19 CNS

Cc1ccc(C(=O)O/N=C2/CCCCC2CN(C)C)cc1 (stereo not drawn)
TGI [1]: > 100 µM
TGI [2]: > 100 µM
TGI [3]: > 100 µM
TGI [4]: > 100 µM
TGI [5]: > 100 µM
TGI [6]: > 100 µM
TGI [7]: > 100 µM
TGI [8]: > 100 µM
TGI [9]: > 100 µM
TGI [10]: > 100 µM
TGI [11]: > 100 µM
TGI [12]: > 100 µM
TGI [13]: > 100 µM
TGI [14]: > 100 µM
TGI [15]: > 100 µM
TGI [16]: > 100 µM
TGI [17]: > 100 µM
TGI [18]: > 100 µM
TGI [19]: > 100 µM
TGI [20]: > 100 µM
TGI [21]: > 100 µM
TGI [22]: > 100 µM
TGI [23]: > 100 µM
TGI [24]: > 100 µM
TGI [25]: > 100 µM
TGI [26]: > 100 µM
TGI [27]: > 100 µM
TGI [28]: > 100 µM
TGI [29]: > 100 µM
TGI [30]: > 100 µM
TGI [31]: > 100 µM
TGI [32]: > 100 µM
TGI [33]: > 100 µM
TGI [34]: > 100 µM
TGI [35]: > 100 µM
TGI [36]: > 100 µM
TGI [37]: > 100 µM
TGI [38]: > 100 µM
TGI [39]: > 100 µM
TGI [40]: > 100 µM
TGI [41]: > 100 µM
TGI [42]: > 100 µM
TGI [43]: > 100 µM
TGI [44]: > 100 µM
TGI [45]: > 100 µM
TGI [46]: > 100 µM
TGI [47]: > 100 µM
TGI [48]: > 100 µM
TGI [49]: > 100 µM
TGI [50]: > 100 µM
TGI [51]: > 100 µM
TGI [52]: > 100 µM
TGI [53]: > 100 µM
TGI [54]: > 100 µM
TGI [55]: > 100 µM

CC(=O)NC1=C(C)C(=O)c2c(nc3n2CCC3O)C1=O (stereo not drawn)
TGI [1]: 50.6 µM
TGI [2]: 51.4 µM
TGI [3]: > 100 µM
TGI [4]: > 100 µM
TGI [5]: > 100 µM
TGI [6]: > 100 µM
TGI [7]: > 46.1 µM
TGI [8]: > 100 µM
TGI [9]: > 100 µM
TGI [56]: > 83.3 µM
TGI [10]: > 100 µM
TGI [11]: > 100 µM
TGI [12]: > 100 µM
TGI [13]: 33.3 µM
TGI [14]: > 100 µM
TGI [57]: > 100 µM
TGI [15]: 68.1 µM
TGI [16]: 44.3 µM
TGI [17]: > 100 µM
TGI [18]: 51.3 µM
TGI [19]: 29.7 µM
TGI [20]: > 100 µM
TGI [21]: > 100 µM
TGI [22]: > 100 µM
TGI [23]: > 100 µM
TGI [24]: 44.2 µM
TGI [25]: > 100 µM
TGI [27]: > 100 µM
TGI [28]: > 100 µM
TGI [29]: 64.4 µM
TGI [30]: 37.5 µM
TGI [31]: 68.2 µM
TGI [32]: > 100 µM
TGI [33]: 35 µM
TGI [34]: 67.7 µM
TGI [35]: > 57.1 µM
TGI [36]: > 100 µM
TGI [37]: 48.3 µM
TGI [38]: > 100 µM
TGI [39]: 41.8 µM
TGI [40]: 63.4 µM
TGI [41]: > 100 µM
TGI [58]: 38.1 µM
TGI [42]: 39.3 µM
TGI [43]: 38.2 µM
TGI [44]: > 89.7 µM
TGI [45]: > 100 µM
TGI [46]: > 100 µM
TGI [59]: > 100 µM
TGI [47]: 16.6 µM
TGI [48]: 42.8 µM
TGI [49]: > 100 µM
TGI [50]: > 100 µM
TGI [51]: 21 µM
TGI [52]: > 100 µM
TGI [53]: > 89.8 µM
TGI [54]: > 59.9 µM
TGI [55]: > 100 µM
